Reference: ChEMBL document CHEMBL3632551, “Kynurenine Monooxygenase (KMO) Inhibitors for the Treatment of Acute Pancreatitis and Neurodegenerative Disorders” (ACS Med Chem Lett, 2015)

Biological target: Kynurenine 3-monooxygenase (Homo sapiens, UniProt O15229)
Assay: Inhibition of kynurenine monooxygenase (unknown origin) by MS rapidfire assay

Sequence of Kynurenine 3-monooxygenase (O15229 whole entry): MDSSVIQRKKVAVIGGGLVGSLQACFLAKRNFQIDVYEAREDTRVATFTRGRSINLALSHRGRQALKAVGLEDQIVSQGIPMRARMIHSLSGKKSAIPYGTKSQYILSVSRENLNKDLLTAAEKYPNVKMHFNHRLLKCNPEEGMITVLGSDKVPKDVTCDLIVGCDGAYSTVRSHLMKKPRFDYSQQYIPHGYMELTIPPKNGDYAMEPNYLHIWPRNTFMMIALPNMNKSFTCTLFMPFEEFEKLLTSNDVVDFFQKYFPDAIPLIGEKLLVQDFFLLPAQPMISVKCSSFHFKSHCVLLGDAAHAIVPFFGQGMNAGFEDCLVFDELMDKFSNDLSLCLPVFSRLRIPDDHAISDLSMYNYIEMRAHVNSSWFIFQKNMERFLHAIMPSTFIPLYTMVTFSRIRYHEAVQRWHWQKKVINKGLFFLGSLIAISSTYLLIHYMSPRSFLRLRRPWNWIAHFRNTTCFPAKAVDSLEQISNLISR

SMILES	IC50 [nM]
Cn1ccnc1COc1cc2oc(=O)n(CCC(=O)O)c2cc1Cl	< 794
C[C@@H](Oc1cc2oc(=O)n(CCC(=O)O)c2cc1Cl)c1cccnn1	< 794
